# Data taken from publication PMC11106956 (Malaria Journal, 2024).
# Read-outs that look alike come from different tables or passages of the source.
# Experiments:
# [1] = single oral PQ 0.40-0.50 mg/kg; for Half-life (terminal elimination): median (range) in Table 3; for CF, proportional conversion factor between capillary and venous drug measurements, population estimate (%RSE): plasma; for MTT, absorption mean transit time, population estimate (%RSE): each compound modelled separately
# Description: (§1) This study was a part of an open-label, nonrandomized, dose-adjustment trial of the safety of SLD-PQ in G6PD-deficient and G6PD-normal males in Mali without microscopically detected malaria parasite infection. The main clinical trial was separated into two parts, i.e., Part I in adult males (aged 18–50) and Part II in children (aged 5–17). […] Only 28 adult males from the main trial provided pharmacokinetic samples and were included in this study.
# (§2) After collection of day 0 samples, each participant received an oral dose of PQ according to his group assignment, after a fatty snack (biscuits) to minimized gastrointestinal symptoms. The study pharmacist prepared a dose by crushing a 15-mg tablet of PQ (Sanofi, Laval, Canada) in 15 mL of drinking water and administered the dose to the nearest 0.1 mL under direct observation. […] Capillary samples (0.5 mL) were collected at 2, 4, and 6 h post-dose. Both venous and capillary blood were collected using EDTA tubes, and centrifuged at 1100–1300×g for 10–20 min to obtain plasma samples. The samples were store immediately at − 80 °C until analysed.
# (§3) All compounds were analysed using the liquid chromatography–mass spectrometry (LC–MS) method of Avula et al. [14], modified to employ an ACQUITY UHPLC™, BEH Shield RP18 column (100 mm × 2.1 mm I.D., 1.7 mm) equipped with an LC-18 guard column (Vanguard 2.1 × 5 mm, Waters Corp, Milford, MA, USA). PQ, CPQ and PQCG were separated and eluted within 10-min retention time. The mobile phase, run at a flow rate of 0.25 ml/min, consisted of 0.05% formic acid in water (A) water and 0.05% formic acid in acetonitrile (B) and was applied in a linear gradient elution. […] Samples were injected at 10 μL volume. The limits of quantification in plasma were 5 ng/mL for PQ and PQCG, and 1 ng/mL for CPQ. Quality control samples at 20 ng/mL were run at beginning and end of the batch analyses in duplicate. Intra-assay variability was less than 10%.
# (§4) PQ, CPQ, and PQCG concentrations were transformed into their natural logarithms and analysed using a nonlinear mixed-effects modelling approach in NONMEM version 7.4 (Icon Development Solution, Ellicott city, MD). Pirana version 3.0.0 [15], Perl-speaks-NONMEM version 5.3.0 (PsN) [16] and R version 4.2.0 were used for automation, model evaluation, and diagnostics during the model building process. The first-order conditional estimation method with interaction (FOCE-I) was applied for the estimation method. Each compound was modelled separately. Data below the LLOQ was either omitted (M1-method) or incorporated by imputing the first LLOQ data as half of LLOQ (M6-method) [17].
# (§5) Pharmacokinetic parameters were implemented as a log-normal distribution as follows: θi=θTV×expηi,θ where θi is the individual i th pharmacokinetic parameter estimate, θTV is the typical value of the population mean estimate, and ηi,θ is the inter-individual variability of the parameter θ for the i th individual, assumed to be normal distribution with zero mean and variance ω^2 . Estimated inter-individual variability below 10% was fixed to zero.
# (§6) A linear association between capillary and venous plasma concentrations of all compounds was assumed and modelled using an estimated conversion factor at the population level. Unexplained residual errors were modelled separately for capillary and venous plasma concentrations and implemented as an additive error model on the log-transformed concentrations, equivalent to an exponential error on arithmetic scale.
# [2] = cited from earlier work
# methaemoglobin levels = assay: Linear regression of pharmacokinetic parameters against change in methaemoglobin; type: in vivo, human (African males, Mali); details: slope (95% CI)
# haemoglobin levels = assay: Linear regression of pharmacokinetic parameters against change in haemoglobin; haemoglobin follow-up to 28 days; type: in vivo, human (African males, Mali); details: for Correlation (regression slope) of AUC24 with change in haemoglobin / Correlation (regression slope) of CMAX with change in haemoglobin: slope (95% CI)
# clinical = details: male, human, plasma, po
# Description: as §1, §2, §3, §4, §5, §6
# haemoglobin = details: G6PD-deficient individual, cited from earlier work
# [3] = typical individual 62.5 kg, metabolites dosed as PQ molar dose 1:1
# [4] = G6PD-deficient individuals (n = 18)
# [5] = G6PD-normal individuals (n = 10)
# [6] = background statement, literature
smiles,measurement,setting,value
COc1cc(NC(C)CCC(=O)O)c2ncccc2c1 (stereo not drawn) [Carboxy-primaquine],Half-life (terminal elimination),[1]; n = 28,469 (325–1870) h
same,"AUC24, area under the concentration-time curve up to 24 h","[1]; median (range), n = 28","8030 (1490–12,800) h × ng/mL"
same,"CMAX, maximum concentration","[1]; median (range), n = 28",338 (74.3–546) ng/mL
same,"TMAX, time to maximum concentration","[1]; median (range), n = 28",4.57 (2.19–18.1) h
same,"CF, proportional conversion factor between capillary and venous drug measurements, population estimate (%RSE)",[1],69.1 (3.83%)
same,terminal elimination half-life,[1]; sampling only to 24 h,approximately 19.5 days
same,"MTT, absorption mean transit time, population estimate (%RSE)",[1]; typical individual 62.5 kg,1.24 (11.7%) h
same,"CL/F, apparent elimination clearance, population estimate (%RSE)",[1]; [3],0.129 (28.5%) L/h
same,"VC/F, apparent volume of distribution of the central compartment, population estimate (%RSE)",[1]; [3],93.3 (7.00%) L
same,terminal half-life previously reported,[2]; healthy volunteers,15.6 h
same,Correlation (regression slope) of AUC24 with change in methaemoglobin,methaemoglobin levels; [4],-1914 (95% CI: -8430 to 4602) p-value = 0.534 % mHB change per 1 ng·hr/mL
same,Correlation (regression slope) of CMAX with change in methaemoglobin,methaemoglobin levels; [4],-49.4 (95% CI: -341 to 242) p-value = 0.719 % mHB change per 1 ng/mL
same,Correlation (regression slope) of AUC24 with change in methaemoglobin,methaemoglobin levels; [5],1948 (95% CI: -12127 to 16023) p-value = 0.720 % mHB change per 1 ng·hr/mL
same,Correlation (regression slope) of CMAX with change in methaemoglobin,methaemoglobin levels; [5],119 (95% CI: -351 to 589) p-value = 0.521 % mHB change per 1 ng/mL
same,Correlation (regression slope) of AUC24 with change in haemoglobin,haemoglobin levels; [4],195 (95% CI: -58.7 to 448) p = 0.123 % HB change per 1 ng·hr/mL
same,Correlation (regression slope) of CMAX with change in haemoglobin,haemoglobin levels; [4],9.27 (95% CI: -1.25 to 19.8) p = 0.0803 % HB change per 1 ng/mL
same,Correlation (regression slope) of AUC24 with change in haemoglobin,haemoglobin levels; [5],-206 (95% CI: -555 to 143) p = 0.210 % HB change per 1 ng·hr/mL
same,Correlation (regression slope) of CMAX with change in haemoglobin,haemoglobin levels; [5],-4.63 (95% CI: -18.4 to 9.13) p = 0.460 % HB change per 1 ng/mL
"COc1cc(NC(C)CCCN)c2ncccc2c1 (stereo not drawn) [Primaquine, reference compound]",Half-life (terminal elimination),[1]; n = 28,7.42 (7.04–7.93) h
same,"CF, proportional conversion factor between capillary and venous drug measurements, population estimate (%RSE)",[1],32.9 (6.89%)
same,"MTT, absorption mean transit time, population estimate (%RSE)",[1]; typical individual 62.5 kg,0.563 (18.7%) h
same,"CL/F, apparent elimination clearance, population estimate (%RSE)",[1]; [3],15.4 (9.57%) L/h
same,bioavailability,[2]; [6],96%
same,terminal half-life,[2]; [6],5 to 6 h
same,Tmax,clinical,0.872 h
same,half-life,"clinical; Half-life (terminal elimination), median (range) in Table 3, single oral PQ 0.40-0.50 mg/kg, n = 28",~7.42 h
same,predicted median reduction of haemoglobin,"haemoglobin; 0.25 mg/kg SLD-PQ, 90% CI 0.12-0.65",0.35 g/dL
same,predicted median reduction of haemoglobin,"haemoglobin; 0.40 mg/kg SLD-PQ, 90% CI 0.21-1.00",0.56 g/dL
same,haemoglobin decline after PQ administration,haemoglobin levels; in vivo,no significant haemoglobin declines
same,haematological safety,"haemoglobin levels; in vivo, 0.5 mg/kg",haematologically safe
